Test results taken from patent US8183414B2, “N-(1-phenyl-2-arylethyl)-4,5-dihydro-2H-pyrrol-5-amine compounds as subtype selective modulators of ALPHA2B or ALPHA2B and ALPHA2C adrenoceptors” (Allergan, Inc., priority 2008, dated 2012).
Read-outs that look alike come from different tables or passages of the source.

What was measured:
Assay type in all cases: cell-based
α2B adrenergic receptor = biological target: T1, α2B adrenergic receptor (Homo sapiens, UniProt P18089); experiment: RSAT (Receptor Selection and Amplification Technology) assay, α2B; conditions: for EC50 / RSAT EC50 α2B: cells expressing the receptor alone, receptor-mediated growth response, NA = not active; for RSAT Rel Eff α2B: relative efficacy compared to a standard full agonist
T1 construct: expressed in transfected cells
T1 sequence (P18089 1-450): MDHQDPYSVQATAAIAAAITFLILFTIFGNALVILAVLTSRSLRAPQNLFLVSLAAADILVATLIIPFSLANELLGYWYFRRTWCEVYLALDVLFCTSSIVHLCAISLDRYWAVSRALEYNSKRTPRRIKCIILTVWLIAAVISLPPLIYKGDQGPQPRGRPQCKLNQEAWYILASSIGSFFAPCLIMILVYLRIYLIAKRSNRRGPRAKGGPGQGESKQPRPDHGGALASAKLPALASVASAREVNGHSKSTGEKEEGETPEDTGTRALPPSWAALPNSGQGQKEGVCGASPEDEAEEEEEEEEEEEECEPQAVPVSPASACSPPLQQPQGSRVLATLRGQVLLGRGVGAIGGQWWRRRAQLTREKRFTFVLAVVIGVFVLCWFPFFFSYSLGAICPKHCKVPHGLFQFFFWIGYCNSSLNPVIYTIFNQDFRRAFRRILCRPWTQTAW
Description: (§1) Cells expressing each of the alpha-2 adrenergic receptors alone were incubated with the various compounds and a receptor-mediated growth response was measured.

α2C adrenergic receptor = biological target: T2, α2C adrenergic receptor (Homo sapiens, UniProt P18825); experiment: RSAT (Receptor Selection and Amplification Technology) assay, α2C; conditions: for EC50: cells expressing the receptor alone, receptor-mediated growth response, NA = not active; for RSAT Rel Eff α2C: relative efficacy compared to a standard full agonist
T2 construct: expressed in transfected cells
T2 sequence (P18825 1-462): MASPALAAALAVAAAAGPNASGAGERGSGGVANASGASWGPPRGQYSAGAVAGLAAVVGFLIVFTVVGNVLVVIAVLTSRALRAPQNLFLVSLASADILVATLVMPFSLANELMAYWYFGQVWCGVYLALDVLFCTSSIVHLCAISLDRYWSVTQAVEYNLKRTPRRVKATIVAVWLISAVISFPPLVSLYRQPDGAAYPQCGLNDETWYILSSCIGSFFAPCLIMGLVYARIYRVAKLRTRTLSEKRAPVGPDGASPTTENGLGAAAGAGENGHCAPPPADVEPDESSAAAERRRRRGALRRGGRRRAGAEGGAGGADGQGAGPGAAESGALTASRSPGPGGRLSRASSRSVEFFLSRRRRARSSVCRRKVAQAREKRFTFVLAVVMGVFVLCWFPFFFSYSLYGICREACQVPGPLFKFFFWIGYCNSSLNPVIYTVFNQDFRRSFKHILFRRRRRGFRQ
Description: as §1

α2A adrenergic receptor = biological target: T3, α2A adrenergic receptor (Homo sapiens, UniProt P08913); experiment: RSAT (Receptor Selection and Amplification Technology) assay, α2A
T3 construct: expressed in transfected cells
T3 sequence (P08913 1-465): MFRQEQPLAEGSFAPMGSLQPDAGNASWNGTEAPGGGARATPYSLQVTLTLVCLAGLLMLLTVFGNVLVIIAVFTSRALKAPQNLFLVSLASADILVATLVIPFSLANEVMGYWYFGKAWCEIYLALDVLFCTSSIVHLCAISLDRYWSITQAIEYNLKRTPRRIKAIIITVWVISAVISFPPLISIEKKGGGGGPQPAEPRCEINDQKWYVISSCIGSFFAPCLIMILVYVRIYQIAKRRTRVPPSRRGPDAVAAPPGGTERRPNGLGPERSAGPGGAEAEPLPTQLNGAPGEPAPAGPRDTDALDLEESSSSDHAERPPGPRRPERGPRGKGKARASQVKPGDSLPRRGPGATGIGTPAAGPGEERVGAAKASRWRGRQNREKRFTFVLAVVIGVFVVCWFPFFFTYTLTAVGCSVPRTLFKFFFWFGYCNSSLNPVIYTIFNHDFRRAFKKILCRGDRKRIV
Description: Novel compounds having this general structure were synthesized and tested for alpha adrenergic activity using the Receptor Selection and Amplification Technology (RSAT) assay (Messier et. al., 1995, Pharmacol. Toxicol. 76, pp. 308-311). Cells expressing each of the alpha-2 adrenergic receptors alone were incubated with the various compounds and a receptor-mediated growth response was measured. The compounds activity is described as its EC50 and relative efficacy compared to a standard full agonist.

EC50 (α2B adrenergic receptor; read-out: RSAT EC50 α2B) [µM]	RSAT Rel Eff α2B (α2B adrenergic receptor)	EC50 (α2C adrenergic receptor) [µM]	RSAT Rel Eff α2C (α2C adrenergic receptor)	SMILES	other results
0.0592	(0.81)	0.0396	(0.34)	c1ccc(C(Cc2ccncc2)NC2=NCCC2)cc1 (centres unmarked) [Compound 21]	–
0.0105	(1.04)	0.0125	(0.35)	Clc1ccc(Cl)c(CC(NC2=NCCC2)c2cccc(Cl)c2Cl)c1 (centres unmarked) [Compound 16]	–
0.057	(0.69)	–	–	Clc1cccc(C(CCc2ccccc2)NC2=NCCC2)c1Cl (centres unmarked) [Compound 23]	–
0.004	(0.97)	0.0129	(0.36)	COc1cccc(CC(NC2=NCCC2)c2cccc(Cl)c2Cl)c1 (centres unmarked) [Compound 13]	–
0.21	(0.58)	–	–	Cc1cccc(C(Cc2ccncc2)NC2=NCCC2)c1C (single isomer, unassigned) [Compound 19]	–
0.0086	(0.93)	–	–	Clc1ccc(CC(NC2=NCCC2)c2cccc(Cl)c2Cl)cc1Cl (centres unmarked) [Compound 26]	–
0.0116	(0.71)	–	–	Clc1cccc(C(Cc2ccccc2)NC2=NCCC2)c1 (centres unmarked) [Compound 8]	–
–	(1.09)	–	–	Clc1cccc(C(Cc2cccnc2Cl)NC2=NCCC2)c1 (centres unmarked) [Compound 30]	RSAT EC50 α2B (α2B adrenergic receptor): Potent
0.0051	(0.85)	–	–	Cc1cccc(C(Cc2cncc(C)c2C)NC2=NCCC2)c1 (centres unmarked) [Compound 34]	–
0.0086	(0.96)	0.0063	(0.36)	Fc1c(Cl)cccc1C(Cc1ccccc1)NC1=NCCC1 (centres unmarked) [Compound 14]	–
0.0031	(0.93)	0.0196	(0.43)	Cc1cccc(C(Cc2ccncc2)NC2=NCCC2)c1C (single isomer, unassigned) [Compound 18]	–
0.0112	(0.92)	–	–	Cc1c(Br)cncc1CC(NC1=NCCC1)c1cccc(Cl)c1 (centres unmarked) [Compound 32]	–
0.0022	(1.18)	0.0171	(0.46)	Clc1cc(Cl)cc(CC(NC2=NCCC2)c2cccc(Cl)c2Cl)c1 (centres unmarked) [Compound 20]	–
0.0195	(0.73)	–	–	Fc1cccc(Cl)c1CC(NC1=NCCC1)c1cccc(Cl)c1Cl (centres unmarked) [Compound 17]	–
0.0128	(0.70)	–	–	Cc1c(F)cccc1CC(NC1=NCCC1)c1cccc(Cl)c1Cl (centres unmarked) [Compound 15]	–
–	(1.04)	–	–	Cc1cccc(C(Cc2cccnc2)NC2=NCCC2)c1C (centres unmarked) [Compound 27]	RSAT EC50 α2B (α2B adrenergic receptor): Potent
–	(1.19)	–	–	Clc1cccc(C(Cc2cccnc2)NC2=NCCC2)c1Cl (centres unmarked) [Compound 28, N-(1-(2,3-dichlorophenyl)-2-(pyridin-3-yl)ethyl)-3,4-dihydro-2H-pyrrol-5-amine]	RSAT EC50 α2B (α2B adrenergic receptor): Potent
0.0817	(0.74)	–	–	c1ccc(C(Cc2cccnc2)NC2=NCCC2)cc1 (centres unmarked) [Compound 25]	–
0.0199	(0.91)	–	–	Cc1cncc(CC(NC2=NCCC2)c2cccc(Cl)c2)c1C (centres unmarked) [Compound 33]	–

Second part, the compound before the results:

SMILES	EC50 (α2B adrenergic receptor; read-out: RSAT EC50 α2B) [µM]	RSAT Rel Eff α2B (α2B adrenergic receptor)	EC50 (α2C adrenergic receptor) [µM]	RSAT Rel Eff α2C (α2C adrenergic receptor)	other results
Clc1ccccc1C(Cc1ccncc1)NC1=NCCC1 (centres unmarked) [Compound 4]	0.0384	(0.57)	0.0103	(0.56)	–
Clc1ccccc1C(Cc1ccccc1)NC1=NCCC1 (centres unmarked) [Compound 10]	0.012	(0.51)	0.0133	(0.37)	–
Cc1cncc(CC(NC2=NCCC2)c2cccc(Cl)c2)c1 (centres unmarked) [Compound 29]	–	(1.1)	0.0298	(0.36)	EC50 (α2A adrenergic receptor; cells expressing the receptor alone, receptor-mediated growth response, NA = not active): 0.293 µM; RSAT Rel Eff α2A (α2A adrenergic receptor; relative efficacy compared to a standard full agonist): (0.31); RSAT EC50 α2B (α2B adrenergic receptor): Potent
Clc1cccc(C(Cc2ccccc2Br)NC2=NCCC2)c1Cl (centres unmarked) [Compound 12]	0.0087	(0.96)	–	–	–
Clc1ccc(CC(NC2=NCCC2)c2cccc(Cl)c2Cl)c(Cl)c1 (centres unmarked) [Compound 22]	0.0071	(1.03)	–	–	–
Clc1cccc(C(Cc2ccncc2)NC2=NCCC2)c1Cl (centres unmarked) [Compound 1]	0.0089	(1.25)	0.0484	(0.59)	–
Clc1cccc(C(Cc2ccccc2)NC2=NCCC2)c1Cl (centres unmarked) [Compound 7]	0.0066	(0.88)	–	–	–
c1ccc(CC(NC2=NCCC2)c2ccccc2)cc1 (centres unmarked) [Compound 3]	0.0213	(0.63)	0.0141	(0.36)	–
Cc1cccc(C(Cc2ccccc2)NC2=NCCC2)c1C (centres unmarked) [Compound 6]	0.0029	(0.72)	–	–	–
c1ccc(C(Cc2ccccn2)NC2=NCCC2)cc1 (centres unmarked) [Compound 24]	0.214	(0.44)	–	–	–
Clc1cccc(C(Cc2ccc(Cl)nc2)NC2=NCCC2)c1 (centres unmarked) [Compound 31]	–	(0.84)	–	–	EC50 (α2B adrenergic receptor; RSAT EC50 α2B): 0.0672 µM
Cc1cccc(C(Cc2ccncc2)NC2=NCCC2)c1C (centres unmarked) [Compound 2]	0.0087	(1.04)	0.0848	(0.37)	–
Cc1ccccc1CC(NC1=NCCC1)c1cccc(Cl)c1 (centres unmarked) [Compound 9]	0.0032	(0.62)	0.0028	–	–
Fc1c(Cl)cccc1C(Cc1ccncc1)NC1=NCCC1 (centres unmarked) [Compound 5]	0.0108	(0.94)	–	–	–
Fc1ccc(CC(NC2=NCCC2)c2cccc(Cl)c2Cl)cc1 (centres unmarked) [Compound 11]	0.008	(0.80)	–	–	–
